# Laboratory results published in US20140350081A1, “INSECT G-COUPLED RECEPTORS USEFUL AS TARGETS FOR INSECTICIDES AND COMPOUNDS AND REAGENTS IDENTIFIED USING THE SAME” (priority 2011, published 2014).
# Like-named read-outs stand apart in the source and are kept apart here.
# How the values were obtained:
# [1] = biological target: AaDOP1 (Aedes aegypti, UniProt H6D5H1); assay: CRELuc reporter dose-response in HEK293 cells stably expressing AaDOP1; type: cell-based; details: HEK293 cells stably expressing CRELuc reporter and AaDOP1
# Chain of AaDOP1 (H6D5H1 entry or part of it): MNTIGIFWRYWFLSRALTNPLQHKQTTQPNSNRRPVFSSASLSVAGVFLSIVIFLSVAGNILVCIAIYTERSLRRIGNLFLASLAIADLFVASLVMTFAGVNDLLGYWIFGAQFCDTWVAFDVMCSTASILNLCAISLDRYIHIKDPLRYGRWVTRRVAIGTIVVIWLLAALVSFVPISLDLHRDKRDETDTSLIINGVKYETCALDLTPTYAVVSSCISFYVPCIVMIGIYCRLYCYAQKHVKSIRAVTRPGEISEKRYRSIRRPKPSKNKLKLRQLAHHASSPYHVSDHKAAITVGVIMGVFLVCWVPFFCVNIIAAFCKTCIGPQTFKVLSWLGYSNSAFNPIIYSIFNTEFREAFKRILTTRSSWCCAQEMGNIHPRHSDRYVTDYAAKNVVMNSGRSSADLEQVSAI
# [2] = biological target: T1, AaDOP2 (Aedes aegypti, UniProt H6D5H2); assay: CRELuc reporter dose-response in HEK293 cells stably expressing AaDOP2; type: cell-based
# T1 sequence (H6D5H2 entry or part of it): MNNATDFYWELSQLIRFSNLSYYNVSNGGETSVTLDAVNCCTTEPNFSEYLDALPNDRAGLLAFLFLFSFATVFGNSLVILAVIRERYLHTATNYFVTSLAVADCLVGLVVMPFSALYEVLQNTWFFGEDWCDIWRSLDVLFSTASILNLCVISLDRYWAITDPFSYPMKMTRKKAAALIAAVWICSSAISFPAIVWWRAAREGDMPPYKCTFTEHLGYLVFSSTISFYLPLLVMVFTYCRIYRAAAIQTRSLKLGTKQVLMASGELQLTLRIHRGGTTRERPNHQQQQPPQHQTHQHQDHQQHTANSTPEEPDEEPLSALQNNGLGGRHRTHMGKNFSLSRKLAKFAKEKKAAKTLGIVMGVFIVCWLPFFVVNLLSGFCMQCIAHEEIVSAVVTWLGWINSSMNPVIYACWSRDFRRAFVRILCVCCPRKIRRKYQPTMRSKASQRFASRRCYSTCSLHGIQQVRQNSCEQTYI
# [3] = biological target: T1, AaDOP2; assay: AaDOP2 agonist screen against the LOPAC1280 library; type: cell-based; details: 10 μM compound; percent of response to 1 μM dihydrexidine
# [4] = biological target: T2, Isdop1 (Ixodes scapularis, UniProt A0ACM8FJJ0); assay: cAMP accumulation in HEK 293 cells transiently expressing Isdop1; type: cell-based
# [5] = biological target: T3, Isdop2 (Ixodes scapularis, UniProt A0ACM8DGL0); assay: cAMP accumulation in HEK 293 cells transiently expressing Isdop2; type: cell-based
# T3 sequence (A0ACM8DGL0 entry or part of it): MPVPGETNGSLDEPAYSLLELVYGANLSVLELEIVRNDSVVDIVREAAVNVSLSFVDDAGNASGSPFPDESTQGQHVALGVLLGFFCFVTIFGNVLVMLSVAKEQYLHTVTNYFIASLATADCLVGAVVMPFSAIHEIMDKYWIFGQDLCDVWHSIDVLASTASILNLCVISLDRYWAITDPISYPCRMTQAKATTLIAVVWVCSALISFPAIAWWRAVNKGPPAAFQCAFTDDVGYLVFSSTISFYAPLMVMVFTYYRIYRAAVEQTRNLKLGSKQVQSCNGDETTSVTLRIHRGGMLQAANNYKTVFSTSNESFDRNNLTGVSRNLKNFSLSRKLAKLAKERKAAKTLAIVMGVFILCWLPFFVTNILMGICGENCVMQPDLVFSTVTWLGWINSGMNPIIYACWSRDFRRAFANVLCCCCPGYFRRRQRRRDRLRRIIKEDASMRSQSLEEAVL
# [6] = biological target: T2, Isdop1; assay: cAMP accumulation confirmation assay, cells stably expressing Isdop1; type: cell-based
# [7] = biological target: T3, Isdop2; assay: cAMP accumulation confirmation assay, cells stably expressing Isdop2; type: cell-based
# [8] = test system: adult Reticulitermes flavipes; assay: Termite immersion assay; type: in vivo; details: in vivo
# Text: A series of whole organism bioassays was developed to further evaluate the toxicity of chemistries to a range of agricultural, veterinary and public health pests and non-target insects (Tables 12 and 13). These assays are designed to rapidly explore the biological activity spectrum of chemistries as well as to facilitate initial investigations of the mode of action of insecticidal compounds. Briefly, assays were developed for the German cockroach (Blatella germanica, urban pest), termite (Reticulitermes flavipes; urban pest), lone star tick (Amblyomma americana; veterinary and public health pest), soybean aphid (Aphis glycines, agricultural pest) and honeybee (Apis mellifera; beneficial, non-target insect). The assays were designed to test the toxicity and speed of kill of multiple chemistries on contact. Each of these assays was performed as a single point dose experiment in triplicate using either topical application of compound to the ventral thorax (1 μl of a […] compound solution in 1:1 v:v DMSO:EtOH vehicle; 50-80 μg effective dose depending on compound) as is the case for our cockroach and honeybee assays, or 10 second immersion in a solution of the compound diluted in water or DMSO:[…] The assays were conducted in 24-well plate format with mortality assessment following incubation at 22° C. as described above. Commercial insecticides were incorporated in these assays to provide a positive control and permit initial comparative analyses. Lead chemistries identified in our in vivo screen have been evaluated in the cockroach and termite assays.
# [9] = biological target: T1, AaDOP2; assay: HTRF cAMP accumulation concentration response assay (Cisbio Dynamic 2); type: cell-based; details: AaDOP2 expressing cells in the presence of dopamine; No Inhibition = <10% inhibition at 3 μM test compound; read-out: IC50 ± S.E.M. (nM), HTRF cAMP assay
# [10] = test system: adult male Blatella germanica; assay: Cockroach assay of Table 16 (title contact assay, text feeding assay); type: in vivo; details: 200 mM compound
# Text: (§1) A series of whole organism bioassays was developed to further evaluate the toxicity of chemistries to a range of agricultural, veterinary and public health pests and non-target insects (Tables 12 and 13). These assays are designed to rapidly explore the biological activity spectrum of chemistries as well as to facilitate initial investigations of the mode of action of insecticidal compounds. Briefly, assays were developed for the German cockroach (Blatella germanica, urban pest), termite (Reticulitermes flavipes; urban pest), lone star tick (Amblyomma americana; veterinary and public health pest), soybean aphid (Aphis glycines, agricultural pest) and honeybee (Apis mellifera; beneficial, non-target insect). The assays were designed to test the toxicity and speed of kill of multiple chemistries on contact. Each of these assays was performed as a single point dose experiment in triplicate using either topical application of compound to the ventral thorax ([…]; 50-80 μg effective dose depending on compound) as is the case for our cockroach and honeybee assays, or 10 second immersion in a solution of the compound diluted in water or DMSO:EtOH to a final concentration of 100 μM. The assays were conducted in 24-well plate format with mortality assessment following incubation at 22° C. as described above. Commercial insecticides were incorporated in these assays to provide a positive control and permit initial comparative analyses. Lead chemistries identified in our in vivo screen have been evaluated in the cockroach and termite assays.
# [11] = test system: adult male Blatella germanica; assay: Cockroach contact assay (topical application); type: in vivo; details: 200 mM compound
# Text: as §1
# [12] = biological target: T3, Isdop2; assay: cell-based; details: read-out: % Inhibition (of response to dopamine), Isdop2 screen
# [13] = test system: Ae. aegypti L3 larvae; assay: Ae. aegypti L3 concentration response and time course assays; type: in vivo, Aedes aegypti; details: for LT50: 400 μM, L3 larval time course assay; for LC50: Aedes aegypti
# Method: Briefly, chemistries were diluted to appropriate concentration in water and added to the wells of 24-well plates containing 5 L3 stage Ae. aegypti larvae to achieve a final concentration of 400, 200, 100, 50 and 25 μM in 1 ml sterile RO water. Chemistries were tested in quadruplicate at each concentration. […] Results reported here represent a minimum of three independent CRC experiments (i.e., n=3).
# [14] = biological target: T1, AaDOP2; assay: LOPAC1280 antagonist screen in HEK-CRELuc-Aadop2 cells; type: cell-based
# [15] = test system: Ae. aegypti L3 larvae; assay: whole plant or invertebrate; details: Aedes aegypti
# [16] = test system: Ae. aegypti L3 larvae; details: 400 μM, three independent experiments
# [17] = 10 μM biogenic amine, 300 nM propranolol, cAMP accumulation, mean±standard error
# [18] = 10 μM antagonist with 1 μM dopamine
# [19] = 0.5 h, read-out: mortality of the mosquito population within 30 minutes, 400 μM, L3 larvae
# [20] = 0.5 h, read-out: percent mortality 0.5 hr, 400 uM, L3 larvae, value for this scoring time
# [21] = 1 h, read-out: percent mortality 1 hr, 400 uM, L3 larvae, per scoring time
# [22] = 2 h, read-out: percent mortality 2 hr, 400 uM, L3 larvae, per scoring time
# [23] = 3 h, read-out: percent mortality 3 hr, 400 uM, L3 larvae, per scoring time
# [24] = 4 h, read-out: percent mortality 4 hr, 400 uM, L3 larvae, per scoring time
# [25] = 24 h, read-out: percent mortality 24 hr, 400 uM, L3 larvae, per scoring time
# [26] = 48 h, read-out: Toxicity to Aedes aegypti larvae (mortality) 48 hours, 400 μM, L3 larvae, three independent experiments
# [27] = 48 h, read-out: percent mortality 48 hr, 400 uM, L3 larvae, per scoring time
# [28] = 72 h, read-out: Cumulative % Mortality (72 hrs), 400 uM, L3 larvae
# [29] = 72 h, read-out: Toxicity to Aedes aegypti larvae (mortality) 72 hours, 400 μM, L3 larvae, three independent experiments
# [30] = 72 h, read-out: percent mortality 72 hr, 400 uM, L3 larvae, per scoring time
Compound,IC50 [9],% Mortality 24 hrs [10],% Mortality 48 hrs [10],% Mortality 72 hrs [10],% Mortality 120 hrs [10],% Mortality 24 hrs [11],% Mortality 48 hrs [11],% Mortality 72 hrs [11],% Mortality 120 hrs [11],% Mortality 240 hrs [11],LT50 [13],"mortality at 400 µM [15, 19]","mortality at 400 µM [15, 20]","mortality at 400 µM [15, 21]","mortality at 400 µM [15, 22]","mortality at 400 µM [15, 23]","mortality at 400 µM [15, 24]","mortality at 400 µM [15, 25]","mortality at 400 µM [15, 26]","mortality at 400 µM [15, 27]",also measured
Oc1cc2c(cc1O)[C@H]1c3ccccc3CN[C@@H]1CC2 (racemic) [Dihydrexidine],–,–,–,–,–,–,–,–,–,–,–,–,–,–,–,–,–,–,–,–,"EC50 [1]: 6.9 ± 1.5 nM; EC50 ([2]; HEK293 cells stably expressing CRELuc reporter and AaDOP2, read-out: EC50 values AaDOP2): 290 ± 54 nM; % of DHX [3]: 116%"
NCC(O)c1ccc(O)cc1 (racemic) [Octopamine],–,–,–,–,–,–,–,–,–,–,–,–,–,–,–,–,–,–,–,–,"Stimulatory response (fold-over-basal) Isdop1 [4, 17]: 1.01 ± 0.07 fold-over-basal; EC50 ([1]; ≧10 μM = lacks intrinsic activity): ≥ 10000 nM; EC50 [2]: ≥ 10000 nM; Stimulatory response (fold-over-basal) Isdop2 [5, 17]: 1.20 ± 0.24 fold-over-basal"
"CC(C)(C)[C@]1(O)CCN2CC3c4ccccc4CCc4cccc(c43)[C@@H]2C1 (single isomer, unassigned; (+)) [(+)-Butaclamol, 3-(1,1-dimethylethyl)-2,3,4,4a,8,9,13b,14-octahydro-1H-benzo[6,7]cyclohepta[1,2,3-de]pyrido[2,1-a]isoquinolin-3-ol]",–,–,–,–,–,–,–,–,–,–,–,–,–,–,–,–,–,–,–,–,"effect on dopamine-stimulated cAMP, Isdop1 [4, 18]: did not cause a similar response; IC50 [6]: 3500 nM; IC50 [7]: 320 nM; effect on dopamine-stimulated cAMP, Isdop2 [5, 18]: antagonistic effects"
"CCNC(=O)N1CCN(CCCC(c2ccc(F)cc2)c2ccc(F)cc2)CC1 [Amperozide, 4-[4,4-bis(4-fluorophenyl)butyl]-N-ethylpiperazine-1-carboxamide]",570 ± 110 nM,0%,0%,3%,7%,0%,0%,0%,5%,5%,42 min,> 70%,90%,0%,0%,0%,0%,0%,93%,0%,"mortality of adult termites [8]: 70-100%; inhibition at 10 µM [12]: 69%; % of the SCH23390 effect ([14]; 10 μM compound, 300 nM dopamine, quadruplicate): 83%; % inhibition of DA activity (Aedes cell-based assay screen) ([14]; LOPAC1280 screen hits): 83%; mortality at 400 µM [15, 28]: 100%; mortality at 400 µM [15, 29]: 93%; mortality at 400 µM [15, 30]: 0%"
CN1CC2c3ccccc3Oc3ccc(Cl)cc3C2C1 (stereo not drawn) [Asenapine],0.3 ± 0.06 nM,17%,20%,27%,27%,5%,5%,10%,10%,10%,30 min,> 70%,70%,20%,10%,0%,0%,0%,100%,0%,"LC50 [13]: 40000 nM; Toxicity to Aedes aegypti larvae (mortality) 24 hours [16]: 100%; mortality at 400 µM [15, 28]: 100%; mortality at 400 µM [15, 29]: 100%; mortality at 400 µM [15, 30]: 0%; mortality at 400 µM ([15]; […], read-out: percent mortality […], 400 uM, L3 larvae, per scoring time): 0%"
CN(C)CCCN1c2ccccc2Sc2ccc(Cl)cc21 [Chlorpromazine],17 nM,7%,17%,17%,20%,3%,10%,10%,14%,17%,178 min,> 70%,70%,0%,10%,0%,0%,10%,100%,0%,"inhibition at 10 µM [12]: 92%; LC50 [13]: 92000 nM; Toxicity to Aedes aegypti larvae (mortality) 24 hours [16]: 100%; mortality at 400 µM [15, 28]: 100%; mortality at 400 µM [15, 29]: 100%; mortality at 400 µM [15, 30]: 0%"
